Test results as given in patent US8399696B2, “Functionalized biodegradable triclosan monomers and oligomers for controlled release” (Bezwada Biomedical, LLC, priority 2007, dated 2013).

Assay: Hydrolysis of 500 mg (0.5 grams) of compound in 50 mL buffer (pH 9 or pH 7) at 50 or 100° C.
Type: physicochemical
Method: Into a clean and dry 1 liter, 3 necked round bottom flask equipped with a nitrogen inlet was added 15 grams of triclosan in 150 ml of ethyl acetate. 15 ml of pyridine was added to the reaction mixture and the reaction mixture was left for stifling at room temperature for 10 minutes. To this stirring solution was added dropwise 24 grams of stearic acid glycolic acid chloride 27 dissolved in 30 ml of ethyl acetate and the reaction was left for stirring at room temperature for twenty four hours following which the […] salt was filtered off and the ethyl acetate layer was washed with 5% solution of sodium bicarbonate followed by drying using sodium sulphate. Ethyl acetate was distilled off using high vacuum distillation to yield 22 grams of crude 28. […]

[1] = 0.5 grams in 50 mL pH 9 buffer, 50° C.
[2] = 500 mg in 50 mL pH 9 buffer, 100° C.

Row | time to hydrolysis (Hydrolyzed in) [1] | extent of hydrolysis in 53 hours (0.5 grams in 50 mL pH 7 buffer, 100° C., 53 hours) | SMILES | extent of hydrolysis by TLC in 48 hours (0.5 grams in 50 mL pH 7 buffer, 50° C.) | extent of hydrolysis by TLC in 48 hours (0.5 grams in 50 mL pH 7 buffer, 100° C.) | time to hydrolysis (Hydrolyzed in) [2]
1 | Hydrolyzed in 150 hours |  | O=C(COc1ccc(OCC(=O)Oc2cc(Cl)ccc2Oc2ccc(Cl)cc2Cl)cc1)Oc1cc(Cl)ccc1Oc1ccc(Cl)cc1Cl [Compound 19, {4-[5-Chloro-2-(2,4-dichloro-phenoxy)-phenoxycarbonylmethoxy]-phenoxy}-acetic acid 5-chloro-2-(2,4-dichloro-phenoxy)-phenyl ester] | By TLC it hydrolyzed around 5% in 48 hours | By TLC it hydrolyzed around 15% in 48 hours | 
2 | Hydrolyzed in 150 hours |  | O=C(COCCOc1ccc(OCCOCC(=O)Oc2cc(Cl)ccc2Oc2ccc(Cl)cc2Cl)cc1)Oc1cc(Cl)ccc1Oc1ccc(Cl)cc1Cl [Example 15, [2-(4-{2-[5-Chloro-2-(2,4-dichloro-phenoxy)-phenoxycarbonylmethoxy]-ethoxy}phenoxy)-ethoxy]-acetic acid 5-chloro-2-(2,4-dichloro-phenoxy)-phenyl ester] |  |  | 
3 | Hydrolyzed in 102 hours | Hydrolyzed 50% only in 53 hours | O=C(COCC(=O)Oc1cc(Cl)ccc1Oc1ccc(Cl)cc1Cl)Oc1cc(Cl)ccc1Oc1ccc(Cl)cc1Cl [Example 20] |  |  | Hydrolyzed in 25 hours
4 |  |  | CCCCCCCCCCCCCCCCCC(=O)OCC(=O)Oc1cc(Cl)ccc1Oc1ccc(Cl)cc1Cl [Example 28, Triclosan Glycolic Acid Stearate] |  |  | 27 h
